According to US9771334B2, “Triketone compound and preparation method and use thereof” (SHANDONG CYNDA CHEMICAL CO., LTD., priority 2013, dated 2017):

Experiments:
Test in all cases: Herbicidal activity, pot culture method (primary and secondary screening test)
Assay type in all cases: in vivo
Conditions in all cases: primary screening, pot culture, 150 g/ha, sprayed at 3-leaf stage, result 15 days later
digitaria sanguinalis = test system: digitaria sanguinalis
From the text: (§1) This test example is for describing the herbicidal activity inhibition ratio (%) (the dose is 150 g/ha) of the compound with a structure shown in Formula (I). Primary screening test (pot culture method): The test targets are abutilon theophrasti, digitaria sanguinalis, amaranthus retroflexus, echinochloa crusgalli, eclipta prostrata and setaria viridis. Take flowerpots with an inner diameter of 6 cm, put composite soil (vegetable garden soil:seedling matrix=1:2, v/v) into them till 3⁄4 of flowerpot height, directly sow the above six weed targets (budding rate>85%), cover them with 0.2 cm thick soil, and keep them for future use when the weeds grow to 3-leaf stage. Each compound is dissolved in N,N-dimethylformamide at a dose of 150 g/ha and diluted with distilled water into a 0.2 g/L solution. The solution is sprayed through an automatic spray tower. After the solution on weed leaves is aired dry, the flowerpots are moved into a greenhouse for cultivation. The result is investigated 15 days later. By the same method adopted in primary screening test, a secondary screening test is done on some typical compounds, such as: 5, 6, 20, 21, 23, 34, 47, 65, 66, 70 and 91 at a reduced dose, and the test result is compared with mesotrione which is commercially available and has a good herbicidal effect. The test method is same as that adopted in primary screening test. Mesotrione is bought from Hubei […] Chemical Co., Ltd.

abutilon theophrasti = test system: abutilon theophrasti
From the text: as §1

eclipta prostrata = test system: eclipta prostrata
From the text: as §1

setaria viridis = test system: setaria viridis
From the text: as §1

amaranthus retroflexus = test system: amaranthus retroflexus
From the text: as §1

echinochloa crusgalli = test system: echinochloa crusgalli
From the text: as §1

Row | Compound | herbicidal activity inhibition ratio (%), Digitaria sanguinalis (digitaria sanguinalis) [%] | herbicidal activity inhibition ratio (%), Abutilon theophrasti (abutilon theophrasti) [%] | herbicidal activity inhibition ratio (%), Eclipta prostrata (eclipta prostrata) [%] | herbicidal activity inhibition ratio (%), Setaria viridis (setaria viridis) [%] | herbicidal activity inhibition ratio (%), Amaranthus retroflexus (amaranthus retroflexus) [%] | herbicidal activity inhibition ratio (%), Echinochloa crusgalli (echinochloa crusgalli) [%]
1 | Cc1ccccc1-n1c(=O)c2cc(C(=O)C3=C(O)CC(C)(C)CC3=O)ccc2n(C)c1=S [Compound 87, 6-[(2-hydroxy-4,4-dimethyl-6-oxo-1-cyclohexenyl)carbonyl]-1-methyl-2-thio-3-(o-tolyl)-2,3-dihydroxyquinazoline-4(1H)-ketone] | 0 | 0 | 0 | 10 | 0 | 25
2 | Cc1ccccc1-n1c(=O)[nH]c2ccc(C(=O)C3=C(O)CCCC3=O)cc2c1=O [Compound 68] | 0 | 15 | 0 | 10 | 0 | 0
3 | Cn1c(=O)n(-c2cc(Cl)cc(Cl)c2)c(=O)c2cc(C(=O)C3=C(O)CC(C)(C)CC3=O)ccc21 [Compound 8] | 90 | 0 | 80 | 85 | 100 | 75
4 | Cn1c(=O)n(-c2ccccc2OC(F)(F)F)c(=O)c2cc(C(=O)C3=C(O)CCCC3=O)ccc21 [Compound 39] | 85 | 95 | 85 | 80 | 98 | 70
5 | CCCCn1c(=O)n(-c2ccccc2C)c(=O)c2cc(C(=O)C3=C(O)CC(C)(C)CC3=O)ccc21 [Compound 74] | 0 | 50 | 0 | 10 | 0 | 0
6 | Cn1c(=O)n(-c2ccc(C(F)(F)F)cc2)c(=O)c2cc(C(=O)C3=C(O)CC(C)(C)CC3=O)ccc21 [Compound 31] | 60 | 60 | 55 | 10 | 80 | 40
7 | Cn1c(=O)n(-c2cccc3ccccc23)c(=O)c2cc(C(=O)C3=C(O)CCCC3=O)ccc21 [Compound 44] | 75 | 85 | 0 | 60 | 100 | 65
8 | COc1cccc(-n2c(=O)c3cc(C(=O)C4=C(O)CCCC4=O)ccc3n(C)c2=O)c1 [Compound 55] | 60 | 100 | 68 | 25 | 95 | 93
9 | Cc1ccc(Cl)cc1-n1c(=O)c2cc(C(=O)C3=C(O)CCCC3=O)ccc2n(C)c1=O [Compound 33] | 80 | 85 | 83 | 60 | 90 | 85
10 | COc1ccc(-n2c(=O)c3cc(C(=O)C4=C(O)CCCC4=O)ccc3n(C)c2=O)cc1 [Compound 57] | 75 | 60 | 80 | 50 | 95 | 85
11 | Cc1ccccc1-n1c(=O)c2cc(C(=O)C3=C(O)CC(C)(C)CC3=O)ccc2n(Cc2ccccc2F)c1=O [Compound 85] | 0 | 0 | 0 | 10 | 20 | 20
12 | CCCCn1c(=O)n(-c2ccccc2C)c(=O)c2cc(C(=O)C3=C(O)CCCC3=O)ccc21 [Compound 73] | 0 | 50 | 0 | 10 | 30 | 0
13 | CCn1c(=O)n(-c2ccccc2C)c(=O)c2cc(C(=O)C3=C(O)CC(C)(C)CC3=O)ccc21 [Compound 69] | 30 | 100 | 88 | 85 | 95 | 90
14 | Cn1c(=O)n(-c2ccc(Cl)cc2)c(=O)c2cc(C(=O)C3=C(O)CC(C)(C)CC3=O)ccc21 [Compound 2] | 90 | 100 | 75 | 80 | 95 | 80
15 | Cn1c(=O)n(-c2cc(Cl)cc(Cl)c2)c(=O)c2cc(C(=O)C3=C(O)CCCC3=O)ccc21 [Compound 7] | 70 | 100 | 60 | 80 | 90 | 80
16 | Cn1c(=O)n(-c2ccc(OC(F)(F)F)cc2)c(=O)c2cc(C(=O)C3=C(O)CCCC3=O)ccc21 [Compound 50] | 60 | 50 | 80 | 50 | 95 | 78
17 | Cc1cccc(-n2c(=O)c3cc(C(=O)C4=C(O)CCCC4=O)ccc3n(C)c2=O)c1 [Compound 17] | 75 | 70 | 95 | 100 | 100 | 70
18 | Cc1ccccc1-n1c(=O)c2cc(C(=O)C3=C(O)CC(C)(C)CC3=O)ccc2n(Cc2ccccc2)c1=O [Compound 80] | 0 | 0 | 0 | 10 | 0 | 0
19 | COc1cccc(Cn2c(=O)n(-c3ccccc3C)c(=O)c3cc(C(=O)C4=C(O)CCCC4=O)ccc32)c1 [Compound 84] | 25 | 0 | 80 | 10 | 0 | 50
20 | Cc1ccccc1-n1c(=O)c2cc(C(=O)C3=C(O)CCCC3=O)ccc2n(Cc2ccccc2F)c1=O [Compound 83] | 30 | 0 | 90 | 50 | 0 | 50
21 | Cn1c(=O)n(-c2cccc(F)c2)c(=O)c2cc(C(=O)C3=C(O)CC(C)(C)CC3=O)ccc21 [Compound 11] | 95 | 85 | 85 | 80 | 85 | 85
